Source: article PMC9950949 (iScience, 2023)
pKd: −log10 of the molar value.

Target: NLRP3 (Homo sapiens, UniProt Q96P20)
Experiment: microscale thermophoresis
Format: binding

Chain of NLRP3 (Q96P20 whole entry): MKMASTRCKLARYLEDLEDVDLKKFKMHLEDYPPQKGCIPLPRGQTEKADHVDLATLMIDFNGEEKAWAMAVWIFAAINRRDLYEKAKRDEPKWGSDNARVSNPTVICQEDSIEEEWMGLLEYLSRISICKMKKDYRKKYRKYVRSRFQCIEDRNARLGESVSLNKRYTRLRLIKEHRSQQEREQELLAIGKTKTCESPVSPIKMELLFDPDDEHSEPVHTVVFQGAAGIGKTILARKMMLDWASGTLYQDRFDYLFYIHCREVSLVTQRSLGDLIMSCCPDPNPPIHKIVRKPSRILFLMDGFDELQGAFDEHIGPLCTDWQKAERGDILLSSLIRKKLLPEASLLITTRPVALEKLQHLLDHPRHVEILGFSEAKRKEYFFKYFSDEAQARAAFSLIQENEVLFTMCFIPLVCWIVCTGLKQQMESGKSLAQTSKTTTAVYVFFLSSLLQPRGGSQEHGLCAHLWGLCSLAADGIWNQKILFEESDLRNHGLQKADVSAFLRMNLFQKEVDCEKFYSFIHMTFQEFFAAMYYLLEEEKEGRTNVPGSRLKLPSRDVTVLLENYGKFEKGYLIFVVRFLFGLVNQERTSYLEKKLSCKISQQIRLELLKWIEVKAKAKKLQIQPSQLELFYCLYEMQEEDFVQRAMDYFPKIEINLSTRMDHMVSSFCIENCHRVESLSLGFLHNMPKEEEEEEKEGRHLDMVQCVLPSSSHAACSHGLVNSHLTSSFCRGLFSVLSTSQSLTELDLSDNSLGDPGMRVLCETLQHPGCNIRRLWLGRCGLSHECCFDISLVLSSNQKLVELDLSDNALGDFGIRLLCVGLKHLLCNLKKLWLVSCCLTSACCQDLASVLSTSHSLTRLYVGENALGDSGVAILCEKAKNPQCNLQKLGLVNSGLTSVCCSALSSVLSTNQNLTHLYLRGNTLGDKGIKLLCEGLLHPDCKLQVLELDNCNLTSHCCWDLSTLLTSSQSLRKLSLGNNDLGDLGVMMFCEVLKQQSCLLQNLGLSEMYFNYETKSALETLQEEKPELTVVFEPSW

pKd: ~6.43
SMILES: O=C1NC(=O)[C@@H](c2cn3c4c(cccc24)CCC3)[C@@H]1c1c[nH]c2ccccc12 [Tivantinib]
